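Compound exposure: 48 hours, 5 concentrations, 96-well plates. GI50 = concentration required for 50% inhibition of growth.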 Activity calls are given as the source filed them. No stated cut-off is given here; in the data, active = GI50 up to about 1.1 µM and inactive = higher.
Tests used:
Experiment in all cases: growth of human tumour cells (NCI), 48 h
[1] = system: OVCAR-5
[2] = system: ACHN
[3] = system: MCF7
[4] = system: HOP-62
[5] = system: MOLT-4
[6] = system: TK-10
[7] = system: SK-MEL-28
[8] = system: SR
[9] = system: 786-0
[10] = system: A549
[11] = system: NCI-H460
[12] = system: MDA-MB-231
[13] = system: CAKI-1
[14] = system: SK-MEL-5
[15] = system: NCI/ADR-RES
[16] = system: K562
[17] = system: MDA-MB-435
[18] = system: HL-60
[19] = system: UACC-257
[20] = system: HCC 2998

Measured: GI50

O=C(O)/C=C\C(=O)Nc1ccc2c(c1)C(=O)c1cc(F)ccc1-2
inactive: [1] > 100 µM | [2] > 100 µM | [3] > 100 µM | [4] > 100 µM | [5] > 100 µM | [6] > 100 µM | [7] > 100 µM | [8] > 100 µM | [9] > 100 µM | [10] > 100 µM | [11] > 100 µM | [12] > 100 µM | [13] > 100 µM | [14] > 100 µM | [15] > 100 µM | [16] > 100 µM | [17] > 100 µM | [18] > 100 µM | [19] > 100 µM

CSC1=N/C(=C\c2ccc(C)cc2)C(=O)N1
inactive: [1] > 100 µM | [2] > 100 µM | [3] 50.8 µM | [4] 39.5 µM | [5] 81.5 µM | [6] > 100 µM | [7] > 100 µM | [8] > 100 µM | [9] 45.8 µM | [10] > 100 µM | [12] 92.7 µM | [13] > 100 µM | [15] > 100 µM | [17] > 100 µM | [18] 54.8 µM | [20] 66.2 µM | [19] > 100 µM

CCOC(=O)c1sc(N)nc1N1CCCC1
inactive: [1] > 100 µM | [2] > 100 µM | [3] > 100 µM | [4] > 100 µM | [5] > 100 µM | [6] > 100 µM | [7] > 100 µM | [8] > 100 µM | [9] > 100 µM | [10] > 100 µM | [11] > 100 µM | [12] > 100 µM | [13] > 100 µM | [14] > 100 µM | [15] > 100 µM | [16] > 100 µM | [17] > 100 µM | [18] > 100 µM | [19] > 100 µM

O=[N+]([O-])c1ccc(/C=C(/c2ccc([N+](=O)[O-])o2)S(=O)(=O)c2ccccc2)cc1
inactive: [1] > 100 µM | [2] > 100 µM | [3] 40.8 µM | [4] 50.6 µM | [5] 16.8 µM | [6] > 100 µM | [7] > 100 µM | [8] 16.4 µM | [9] > 100 µM | [10] > 100 µM | [11] > 100 µM | [12] 14.3 µM | [13] > 100 µM | [14] 13.9 µM | [15] 47.5 µM | [16] 36.2 µM | [17] 60.8 µM | [18] 17.5 µM | [19] 29.4 µM
